In PubChem BioAssay AID1963436 (Molecular Pharmacology Branch, DTP, NCI, 2024):
“And” between values parts separate entries of the source, which are not always exact repeats. Equal entries are not always repeated.

Test system: OVCAR-5 complex spheroid (HUVEC/MSC), viability % T/C
Test: Anticancer human tumor OVCAR-5 cell line growth inhibition [Asc];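 note: spheroids exposed to agents for 7 days before readout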;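 for viability, T/C: 100% = DMSO vehicle-treated wells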
Settings: for viability, T/C: stronger effect = lower value
Summary of the method: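 Complex spheroids combining tumor cells with HUVEC endothelial cells and human MSCs, at 37 degrees C, 5% CO2; agents tested alone or combined, half-log dilutions from at or near clinical Cmax, or 10 microM if Cmax unknown.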

[1] = curve of first compound, second compound 0.1 µM
[2] = curve of first compound, second compound 0.316 µM
[3] = curve of first compound, second compound 1 µM
[4] = second compound 0.1 µM, first compound 0.0316 µM
[5] = second compound 0.1 µM, first compound 0.1 µM
[6] = second compound 0.1 µM, first compound 0.316 µM
[7] = second compound 0.1 µM, first compound 1 µM
[8] = second compound 0.316 µM, first compound 0.0316 µM
[9] = second compound 0.316 µM, first compound 0.1 µM
[10] = second compound 0.316 µM, first compound 0.316 µM
[11] = second compound 0.316 µM, first compound 1 µM
[12] = second compound 1 µM, first compound 0.0316 µM
[13] = second compound 1 µM, first compound 0.1 µM
[14] = second compound 1 µM, first compound 0.316 µM
[15] = second compound 1 µM, first compound 1 µM

**Q.** NC1CCC(NC2CC2c2ccccc2)CC1 (configuration not stated) was tested. Which viability, T/C (compound 0.000316 µM) did it give?
**A.** 97.1% and 101% and 95.9%

**Q.** What about the viability, T/C (compound 0.001 µM) of the same molecule?
**A.** 97.4% and 108% and 97%

**Q.** What about the viability, T/C (compound 0.00316 µM) of the same molecule?
**A.** 89.8% and 82% and 93.5%

**Q.** And the viability, T/C (compound 0.01 µM)?
**A.** 90.4% and 90% and 91.2%

**Q.** And the viability, T/C (compound 0.0316 µM)?
**A.** 105% and 93.5% and 87%

**Q.** And the viability, T/C (compound 0.1 µM)?
**A.** 90.1% and 91.9% and 91.5%

**Q.** What about the IC50 (curve of compound) of the same molecule?
**A.** > 100 nM

**Q.** Which IC50 (curve of first compound, second compound 0.01 µM) does the source give for COc1c(OCCCN2CCOCC2)ccc2c3n(c(=NC(=O)c4cnc(N)nc4)nc12)CCN3 + CNC(C)C(=O)NC1CN(S(=O)(=O)c2cccc(S(=O)(=O)N3CCC4CCC(C(=O)NC(c5ccccc5)c5ccccc5)N4C(=O)C(NC(=O)C(C)NC)C3)c2)CCC2CCC(C(=O)NC(c3ccccc3)c3ccccc3)N2C1=O here?
**A.** 29.5 nM

**Q.** What about the IC50 (curve of first compound, second compound 0.0316 µM) of the same molecule?
**A.** 22.4 nM

**Q.** What about the IC50 [1] of the same molecule?
**A.** 19.5 nM

**Q.** What about the IC50 [2] of the same molecule?
**A.** 18.7 nM

**Q.** And the IC50 [3]?
**A.** 17.6 nM

**Q.** And the viability, T/C (second compound 0.01 µM, first compound 0.00316 µM)?
**A.** 93.3%

**Q.** What about the viability, T/C (second compound 0.01 µM, first compound 0.01 µM) of the same molecule?
**A.** 67.4%

**Q.** What about the viability, T/C (second compound 0.01 µM, first compound 0.0316 µM) of the same molecule?
**A.** 48%

**Q.** And the viability, T/C (second compound 0.01 µM, first compound 0.1 µM)?
**A.** 35%

**Q.** What about the viability, T/C (second compound 0.01 µM, first compound 0.316 µM) of the same molecule?
**A.** 17.1%

**Q.** What about the viability, T/C (second compound 0.01 µM, first compound 1 µM) of the same molecule?
**A.** 8.86%

**Q.** And the viability, T/C (second compound 0.0316 µM, first compound 0.00316 µM)?
**A.** 69.8%

**Q.** And the viability, T/C (second compound 0.0316 µM, first compound 0.01 µM)?
**A.** 63.6%

**Q.** What about the viability, T/C (second compound 0.0316 µM, first compound 0.0316 µM) of the same molecule?
**A.** 42.5%

**Q.** And the viability, T/C (second compound 0.0316 µM, first compound 0.1 µM)?
**A.** 30.2%

**Q.** What about the viability, T/C (second compound 0.0316 µM, first compound 0.316 µM) of the same molecule?
**A.** 17.6%

**Q.** What about the viability, T/C (second compound 0.0316 µM, first compound 1 µM) of the same molecule?
**A.** 7.75%

**Q.** What about the viability, T/C (second compound 0.1 µM, first compound 0.00316 µM) of the same molecule?
**A.** 68%

**Q.** And the viability, T/C (second compound 0.1 µM, first compound 0.01 µM)?
**A.** 61.5%

**Q.** And the viability, T/C [4]?
**A.** 41.5%

**Q.** What about the viability, T/C [5] of the same molecule?
**A.** 26.3%

**Q.** And the viability, T/C [6]?
**A.** 15.9%

**Q.** What about the viability, T/C [7] of the same molecule?
**A.** 7.03%

**Q.** What about the viability, T/C (second compound 0.316 µM, first compound 0.00316 µM) of the same molecule?
**A.** 67.1%

**Q.** And the viability, T/C (second compound 0.316 µM, first compound 0.01 µM)?
**A.** 59.9%

**Q.** What about the viability, T/C [8] of the same molecule?
**A.** 41.7%

**Q.** What about the viability, T/C [9] of the same molecule?
**A.** 25.3%

**Q.** And the viability, T/C [10]?
**A.** 13.1%

**Q.** What about the viability, T/C [11] of the same molecule?
**A.** 6.27%

**Q.** What about the viability, T/C (second compound 1 µM, first compound 0.00316 µM) of the same molecule?
**A.** 82.9%

**Q.** What about the viability, T/C (second compound 1 µM, first compound 0.01 µM) of the same molecule?
**A.** 56.1%

**Q.** What about the viability, T/C [12] of the same molecule?
**A.** 42.1%

**Q.** And the viability, T/C [13]?
**A.** 27.1%

**Q.** And the viability, T/C [14]?
**A.** 12.3%

**Q.** And the viability, T/C [15]?
**A.** 6.51%

**Q.** How did the IC50 [1] turn out when C=C(F)C(=O)N1CCN(c2nc(OCC3CCCN3C)nc3c2CCN(c2cccc4cccc(Cl)c24)C3)CC1CC#N (configuration not stated) + Cc1c(S(C)(=O)=O)c(-c2cc(F)cc(N3CCN(c4ccc(NS(=O)(=O)c5ccc(NC(CCN6CCC(C(=O)OCCCP(=O)(O)O)CC6)CSc6ccccc6)c(S(=O)(=O)C(F)(F)F)c5)cc4)CC3)c2)c(-c2ccc(Cl)cc2)n1C(C)C was run?
**A.** 799 nM

**Q.** And the IC50 [2]?
**A.** 587 nM

**Q.** What about the IC50 [3] of the same molecule?
**A.** 649 nM

**Q.** What about the IC50 (curve of first compound, second compound 3.16 µM) of the same molecule?
**A.** 561 nM

**Q.** What about the IC50 (curve of first compound, second compound 10 µM) of the same molecule?
**A.** 643 nM

**Q.** What about the viability, T/C [4] of the same molecule?
**A.** 88.7%

**Q.** And the viability, T/C [5]?
**A.** 96.8%

**Q.** And the viability, T/C [6]?
**A.** 79.9%

**Q.** And the viability, T/C [7]?
**A.** 43.7%

**Q.** And the viability, T/C (second compound 0.1 µM, first compound 3.16 µM)?
**A.** 1.2%

**Q.** And the viability, T/C (second compound 0.1 µM, first compound 10 µM)?
**A.** 0.31%

**Q.** And the viability, T/C [8]?
**A.** 93.5%

**Q.** What about the viability, T/C [9] of the same molecule?
**A.** 98%

**Q.** And the viability, T/C [10]?
**A.** 78.3%

**Q.** What about the viability, T/C [11] of the same molecule?
**A.** 25.4%

**Q.** What about the viability, T/C (second compound 0.316 µM, first compound 3.16 µM) of the same molecule?
**A.** 1.91%

**Q.** What about the viability, T/C (second compound 0.316 µM, first compound 10 µM) of the same molecule?
**A.** 0.12%

**Q.** What about the viability, T/C [12] of the same molecule?
**A.** 81.5%

**Q.** And the viability, T/C [13]?
**A.** 89%

**Q.** What about the viability, T/C [14] of the same molecule?
**A.** 83.3%

**Q.** What about the viability, T/C [15] of the same molecule?
**A.** 29.9%

**Q.** And the viability, T/C (second compound 1 µM, first compound 3.16 µM)?
**A.** 0.65%

**Q.** What about the viability, T/C (second compound 1 µM, first compound 10 µM) of the same molecule?
**A.** 0.74%

**Q.** What about the viability, T/C (second compound 3.16 µM, first compound 0.0316 µM) of the same molecule?
**A.** 90%

**Q.** What about the viability, T/C (second compound 3.16 µM, first compound 0.1 µM) of the same molecule?
**A.** 92.3%

**Q.** And the viability, T/C (second compound 3.16 µM, first compound 0.316 µM)?
**A.** 80.1%

**Q.** And the viability, T/C (second compound 3.16 µM, first compound 1 µM)?
**A.** 19.6%

**Q.** What about the viability, T/C (second compound 3.16 µM, first compound 3.16 µM) of the same molecule?
**A.** 0.82%

**Q.** And the viability, T/C (second compound 3.16 µM, first compound 10 µM)?
**A.** 0.14%

**Q.** And the viability, T/C (second compound 10 µM, first compound 0.0316 µM)?
**A.** 111%

**Q.** And the viability, T/C (second compound 10 µM, first compound 0.1 µM)?
**A.** 131%

**Q.** What about the viability, T/C (second compound 10 µM, first compound 0.316 µM) of the same molecule?
**A.** 106%

**Q.** What about the viability, T/C (second compound 10 µM, first compound 1 µM) of the same molecule?
**A.** 15.1%

**Q.** What about the viability, T/C (second compound 10 µM, first compound 3.16 µM) of the same molecule?
**A.** 0.46%

**Q.** And the viability, T/C (second compound 10 µM, first compound 10 µM)?
**A.** 0.21%
